#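 Results reflect a 48-hour exposure of cells in 96-well plates to compound at five concentrations. At the GI50, growth is halved. At the TGI there is no net growth.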
# Assays:
# Test in all cases: NCI anticancer screen, dose series, 48 h
# CCRF-CEM leukemia = test system: CCRF-CEM leukemia
# SF-295 CNS = test system: SF-295 CNS
# SK-MEL-2 melanoma = test system: SK-MEL-2 melanoma
# OVCAR-4 ovarian = test system: OVCAR-4 ovarian
# MDA-MB-231 breast = test system: MDA-MB-231 breast
# 786-0 renal = test system: 786-0 renal
# RPMI-8226 leukemia = test system: RPMI-8226 leukemia
# CAKI-1 renal = test system: CAKI-1 renal
# TK-10 renal = test system: TK-10 renal
# SK-MEL-5 melanoma = test system: SK-MEL-5 melanoma
# DU-145 prostate = test system: DU-145 prostate
# SNB-19 CNS = test system: SNB-19 CNS
# PC-3 prostate = test system: PC-3 prostate
# HL-60(TB) leukemia = test system: HL-60(TB) leukemia
# EKVX NSCLC = test system: EKVX NSCLC
# COLO 205 colon = test system: COLO 205 colon
# MALME-3M melanoma = test system: MALME-3M melanoma
# MOLT-4 leukemia = test system: MOLT-4 leukemia
# SW-620 colon = test system: SW-620 colon
# HS 578T breast = test system: HS 578T breast
# BT-549 breast = test system: BT-549 breast
# OVCAR-5 ovarian = test system: OVCAR-5 ovarian
# KM12 colon = test system: KM12 colon
# UACC-62 melanoma = test system: UACC-62 melanoma
# HOP-92 NSCLC = test system: HOP-92 NSCLC
# NCI/ADR-RES ovarian = test system: NCI/ADR-RES ovarian
# K-562 leukemia = test system: K-562 leukemia
# ACHN renal = test system: ACHN renal
# LOX IMVI melanoma = test system: LOX IMVI melanoma
# OVCAR-3 ovarian = test system: OVCAR-3 ovarian
# U251 CNS = test system: U251 CNS
# SK-MEL-28 melanoma = test system: SK-MEL-28 melanoma
# A549 NSCLC = test system: A549 NSCLC
# NCI-H226 lung = test system: NCI-H226 lung
# NCI-H23 lung = test system: NCI-H23 lung
# UO-31 renal = test system: UO-31 renal
# MDA-MB-435 = test system: MDA-MB-435
# MDA-MB-468 breast = test system: MDA-MB-468 breast
# OVCAR-8 ovarian = test system: OVCAR-8 ovarian
# NCI-H522 lung = test system: NCI-H522 lung
# UACC-257 melanoma = test system: UACC-257 melanoma
# NCI-H460 lung = test system: NCI-H460 lung
# SF-539 CNS = test system: SF-539 CNS
# HCT-116 colon = test system: HCT-116 colon
# HT29 colon = test system: HT29 colon
# SF-268 CNS = test system: SF-268 CNS
# SK-OV-3 ovarian = test system: SK-OV-3 ovarian
# HCC-2998 colon = test system: HCC-2998 colon
# RXF 393 renal = test system: RXF 393 renal
# M14 melanoma = test system: M14 melanoma
# T-47D breast = test system: T-47D breast
# SNB-75 CNS = test system: SNB-75 CNS
# IGROV1 ovarian = test system: IGROV1 ovarian
# HCT-15 colon = test system: HCT-15 colon
# MCF7 breast = test system: MCF7 breast
# A498 renal = test system: A498 renal
# SN12C renal = test system: SN12C renal
# HOP-62 NSCLC = test system: HOP-62 NSCLC
compound,measurement,setting,value
CCN(CC)CCOc1ccc(Nc2ncc3cc(-c4ccc(O)c(C#N)c4)c(=O)n(C)c3n2)cc1,GI50,CCRF-CEM leukemia,16.1 µM
same,TGI,CCRF-CEM leukemia,53.5 µM
same,GI50,SF-295 CNS,> 100 µM
same,TGI,SF-295 CNS,> 100 µM
same,GI50,SK-MEL-2 melanoma,15.7 µM
same,TGI,SK-MEL-2 melanoma,31.9 µM
same,GI50,OVCAR-4 ovarian,> 100 µM
same,TGI,OVCAR-4 ovarian,> 100 µM
same,GI50,MDA-MB-231 breast,19.3 µM
same,TGI,MDA-MB-231 breast,> 100 µM
same,GI50,786-0 renal,15 µM
same,TGI,786-0 renal,29 µM
same,GI50,RPMI-8226 leukemia,26.7 µM
same,TGI,RPMI-8226 leukemia,> 100 µM
same,GI50,CAKI-1 renal,48 µM
same,TGI,CAKI-1 renal,> 100 µM
same,GI50,TK-10 renal,> 100 µM
same,TGI,TK-10 renal,> 100 µM
same,GI50,SK-MEL-5 melanoma,13.9 µM
same,TGI,SK-MEL-5 melanoma,27.2 µM
same,GI50,DU-145 prostate,> 100 µM
same,TGI,DU-145 prostate,> 100 µM
same,GI50,SNB-19 CNS,25.8 µM
same,TGI,SNB-19 CNS,57.3 µM
same,GI50,PC-3 prostate,> 100 µM
same,TGI,PC-3 prostate,> 100 µM
same,GI50,HL-60(TB) leukemia,> 100 µM
same,TGI,HL-60(TB) leukemia,> 100 µM
same,GI50,EKVX NSCLC,> 100 µM
same,TGI,EKVX NSCLC,> 100 µM
same,GI50,COLO 205 colon,25 µM
same,TGI,COLO 205 colon,> 100 µM
same,GI50,MALME-3M melanoma,15.1 µM
same,TGI,MALME-3M melanoma,28.5 µM
same,GI50,MOLT-4 leukemia,17.4 µM
same,TGI,MOLT-4 leukemia,66.4 µM
same,GI50,SW-620 colon,55.4 µM
same,TGI,SW-620 colon,> 100 µM
same,GI50,HS 578T breast,6.77 µM
same,TGI,HS 578T breast,30.8 µM
same,GI50,BT-549 breast,24.8 µM
same,TGI,BT-549 breast,59.3 µM
same,GI50,OVCAR-5 ovarian,> 100 µM
same,TGI,OVCAR-5 ovarian,> 100 µM
same,GI50,KM12 colon,28.3 µM
same,TGI,KM12 colon,> 100 µM
same,GI50,UACC-62 melanoma,15.4 µM
same,TGI,UACC-62 melanoma,29.3 µM
same,GI50,HOP-92 NSCLC,4.46 µM
same,TGI,HOP-92 NSCLC,22.8 µM
same,GI50,NCI/ADR-RES ovarian,> 100 µM
same,TGI,NCI/ADR-RES ovarian,> 100 µM
same,GI50,K-562 leukemia,5.45 µM
same,TGI,K-562 leukemia,> 100 µM
same,GI50,ACHN renal,49.3 µM
same,TGI,ACHN renal,> 100 µM
same,GI50,LOX IMVI melanoma,22.6 µM
same,TGI,LOX IMVI melanoma,> 100 µM
same,GI50,OVCAR-3 ovarian,> 100 µM
same,TGI,OVCAR-3 ovarian,> 100 µM
same,GI50,U251 CNS,18.6 µM
same,TGI,U251 CNS,35.6 µM
same,GI50,SK-MEL-28 melanoma,17.2 µM
same,TGI,SK-MEL-28 melanoma,31.5 µM
same,GI50,A549 NSCLC,> 100 µM
same,TGI,A549 NSCLC,> 100 µM
same,GI50,NCI-H226 lung,13 µM
same,TGI,NCI-H226 lung,53.4 µM
same,GI50,NCI-H23 lung,> 100 µM
same,TGI,NCI-H23 lung,> 100 µM
same,GI50,UO-31 renal,> 100 µM
same,TGI,UO-31 renal,> 100 µM
same,GI50,MDA-MB-435,18.4 µM
same,TGI,MDA-MB-435,36.5 µM
same,GI50,MDA-MB-468 breast,15.6 µM
same,TGI,MDA-MB-468 breast,30.2 µM
same,GI50,OVCAR-8 ovarian,> 100 µM
same,TGI,OVCAR-8 ovarian,> 100 µM
same,GI50,NCI-H522 lung,17.4 µM
same,TGI,NCI-H522 lung,35 µM
same,GI50,UACC-257 melanoma,18.8 µM
same,TGI,UACC-257 melanoma,37.9 µM
same,GI50,NCI-H460 lung,37.5 µM
same,TGI,NCI-H460 lung,> 100 µM
same,GI50,SF-539 CNS,17.8 µM
same,TGI,SF-539 CNS,64.3 µM
same,GI50,HCT-116 colon,30.7 µM
same,TGI,HCT-116 colon,> 100 µM
same,GI50,HT29 colon,9.92 µM
same,TGI,HT29 colon,41.3 µM
same,GI50,SF-268 CNS,24 µM
same,TGI,SF-268 CNS,> 100 µM
same,GI50,SK-OV-3 ovarian,> 100 µM
same,TGI,SK-OV-3 ovarian,> 100 µM
same,GI50,HCC-2998 colon,> 100 µM
same,TGI,HCC-2998 colon,> 100 µM
same,GI50,RXF 393 renal,3.28 µM
same,TGI,RXF 393 renal,14.1 µM
same,GI50,M14 melanoma,13.4 µM
same,TGI,M14 melanoma,27.1 µM
same,GI50,T-47D breast,15.6 µM
same,TGI,T-47D breast,38.9 µM
same,GI50,SNB-75 CNS,2550 nM
same,TGI,SNB-75 CNS,> 100 µM
same,GI50,IGROV1 ovarian,68 µM
same,TGI,IGROV1 ovarian,> 100 µM
same,GI50,HCT-15 colon,> 100 µM
same,TGI,HCT-15 colon,> 100 µM
same,GI50,MCF7 breast,15.3 µM
same,TGI,MCF7 breast,32.9 µM
same,GI50,A498 renal,62.6 µM
same,TGI,A498 renal,> 100 µM
same,GI50,SN12C renal,62.3 µM
same,TGI,SN12C renal,> 100 µM
same,GI50,HOP-62 NSCLC,> 100 µM
same,TGI,HOP-62 NSCLC,> 100 µM

# — PubChem BioAssay (NCI)
